According to patent US9096625B2, “BCL-2/BCL-XL inhibitors and therapeutic methods using the same” (THE REGENTS OF THE UNIVERSITY OF MICHIGAN, priority 2013, dated 2015):

How the values were obtained:
Mcl-1 [1] = target: T1, Mcl-1 (Homo sapiens, UniProt Q07820); details: versus Bcl-2, Bcl-xL, Bcl-w; cited from earlier work
Target sequence in this assay (Q07820 whole entry, species assumed): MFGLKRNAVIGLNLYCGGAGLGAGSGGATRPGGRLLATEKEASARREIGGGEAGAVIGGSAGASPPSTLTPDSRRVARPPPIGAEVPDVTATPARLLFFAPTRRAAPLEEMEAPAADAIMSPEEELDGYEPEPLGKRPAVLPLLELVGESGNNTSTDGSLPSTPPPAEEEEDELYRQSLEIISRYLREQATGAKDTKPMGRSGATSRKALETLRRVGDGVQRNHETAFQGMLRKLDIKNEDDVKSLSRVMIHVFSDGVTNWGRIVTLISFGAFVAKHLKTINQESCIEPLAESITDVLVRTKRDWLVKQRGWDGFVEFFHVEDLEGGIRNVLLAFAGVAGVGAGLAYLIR

A1 = target: T2, A1 (Homo sapiens, UniProt Q16548); details: versus Bcl-2, Bcl-xL, Bcl-w; cited from earlier work
T2 sequence (Q16548 1-175): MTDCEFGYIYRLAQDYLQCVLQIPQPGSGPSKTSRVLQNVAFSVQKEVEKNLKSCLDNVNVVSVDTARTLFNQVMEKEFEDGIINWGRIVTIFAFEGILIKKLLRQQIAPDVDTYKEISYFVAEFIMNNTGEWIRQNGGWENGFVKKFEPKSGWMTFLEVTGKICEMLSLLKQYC

Mcl-1 [2] = target: T1, Mcl-1; test: Fluorescence polarization (FP)-based binding assay, Mcl-1; details: FP saturation, 2 nM probe, increasing protein concentrations; read-out: Kd of fluorescent probe to Mcl-1
Target sequence in this assay (Q07820 whole entry): as the sequence (Q07820 whole entry, species assumed) above

| Molecule | specificity over Mcl-1 (Mcl-1 [1]) | specificity over A1 (A1) | Kd (Mcl-1 [2]) [nM] |
| --- | --- | --- | --- |
| CC1(C)CCC(c2ccc(Cl)cc2)=C(CN2CCN(c3ccc(C(=O)NS(=O)(=O)c4ccc(N[C@H](CCN5CCOCC5)CSc5ccccc5)c(S(=O)(=O)C(F)(F)F)c4)cc3)CC2)C1 [ABT-263] | high specificity | high specificity |  |
| CN(C)CC[C@H](CSc1ccccc1)Nc1ccc(S(=O)(=O)NC(=O)c2ccc(N3CCN(Cc4ccccc4-c4ccc(Cl)cc4)CC3)cc2)cc1[N+](=O)[O-] [ABT-737] | high specificity | high specificity |  |
| Flu-BID: homemade fluorescein labeled BID (79-99) peptide, fluorescent probe for Mcl-1 FP assay |  |  | 6.8 ± 1.5 |
